{
  "source": "patent US7834008B2",
  "about": "“Cyclopropyl derivatives as NK3 receptor antagonists” (H. Lundbeck A/S, priority 2003, dated 2010)",
  "data": [
    {"test_system": "not given", "experiment": "not given", "settings": "in particular positive symptoms; cited from earlier work", "values": [
      {"compound": "CC(=O)N(C)C1(c2ccccc2)CCN(CCC[C@]2(c3ccc(Cl)c(Cl)c3)CCCN(C(=O)c3ccccc3)C2)CC1", "note": "[SR142801]", "effect against schizophrenia": "has effect against schizophrenia"}
    ]},
    {"molecular_target": "T1, human NK3 receptor (Homo sapiens, UniProt P29371)", "T1 construct": "expressed in transfected cells", "T1 sequence (P29371 1-465)": "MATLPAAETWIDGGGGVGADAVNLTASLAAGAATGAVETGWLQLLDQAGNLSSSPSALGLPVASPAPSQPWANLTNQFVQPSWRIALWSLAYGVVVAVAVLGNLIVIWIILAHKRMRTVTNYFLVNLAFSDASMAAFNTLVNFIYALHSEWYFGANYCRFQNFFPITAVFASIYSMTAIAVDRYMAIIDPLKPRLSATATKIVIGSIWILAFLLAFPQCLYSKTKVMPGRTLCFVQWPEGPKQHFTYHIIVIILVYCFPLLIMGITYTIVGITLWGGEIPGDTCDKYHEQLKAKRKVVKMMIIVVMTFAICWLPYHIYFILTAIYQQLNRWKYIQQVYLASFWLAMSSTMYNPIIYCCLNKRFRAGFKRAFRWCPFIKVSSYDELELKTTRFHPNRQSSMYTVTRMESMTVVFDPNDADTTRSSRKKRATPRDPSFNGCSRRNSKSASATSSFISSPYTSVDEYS", "experiment": "Fluorometric Imaging Plate Reader (FLIPR) calcium assay, antagonist test against NKB", "type": "cell-based", "settings": "BHK cells stably expressing the human NK3 receptor, EC85 of NKB (app. 1 nM)", "procedure": "The Fluorometric Imaging Plate Reader (FLIPR) assay: The compounds were analysed for efficacy profile in FLIPR assays similar to assays described in Jerman, J C et al: Eur J Pharmacol. 2001, 414, p 23-30. BHK cells (cf. Example 20) stably expressing the human NK3 receptor were seeded in 100 μl media in black walled clear-base 96-wells plates (Costar) aiming at a confluency of 95-100% at the day of assay. The assay was performed according to the calcium assay kit (Molecular Devices). Briefly, the calcium assay reagent was dissolved in Hanks BSS (HBSS) buffer, pH 7.4 containing 20 mM Hepes and 2.5 mM probinicid. An equal volume (100 μl) of the calcium assay reagent solution was added to the wells and the plates were incubated for 60 min at 37° C. The plates were subsequently placed in the FLIPR for examination of fluorescence.\nCompounds were diluted in HBSS buffer containing 20 mM Hepes prior to test. For test of agonist activity 50 μl of compound was added to the wells and the plates were analysed for 3 minutes in the FLIPR. For test of antagonist activity, 25 μl of compound was added to the wells and the plate was analysed for a 5 minute period. Subsequently, the wells were added 25 μl of an EC85 (final concentration) of NKB (app. 1 nM) previously determined from a dose-response curve with NKB. The plates were subsequently read for 3 minutes before termination. As controls, selected wells on all plates were added only 100 nM of the NK3 receptor agonist NKB or 2 μM of the calcium ionophor ionomycin. The maximal increase in fluorescence over background following each ligand addition was determined and analysed.", "values": [
      {"compound": "CC(=O)N1CC2(CCN(C[C@@H]3C[C@@]3(C(=O)N(C)Cc3ccc(F)cc3)c3ccccc3)CC2)c2ccccc21", "note": "[Compound 23a]", "inhibition of the NKB-mediated activation of the NK3 receptor": "inhibited the NKB-mediated activation of the NK3 receptor"},
      {"compound": "CC(=O)N1CC2(CCN(C[C@@H]3C[C@@]3(C(=O)N(C)Cc3ccc(F)cc3)c3ccccc3)CC2)c2cc(F)ccc21", "note": "[Compound 25a]", "inhibition of the NKB-mediated activation of the NK3 receptor": "inhibited the NKB-mediated activation of the NK3 receptor"},
      {"compound": "CC(=O)N1CC2(CCN(C[C@@H]3C[C@@]3(C(=O)N(C)Cc3ccc(F)cc3)c3ccc(F)cc3)CC2)c2cc(F)ccc21", "note": "[Compound 32a]", "inhibition of the NKB-mediated activation of the NK3 receptor": "inhibited the NKB-mediated activation of the NK3 receptor"},
      {"compound": "CN(Cc1ccc(F)cc1)C(=O)[C@@]1(c2ccccc2)C[C@H]1CN1CCC(C(=O)N2CCCCC2)(c2ccccc2)CC1", "note": "[Compound 42a, (1S,2R)-1-Phenyl-2-[4-phenyl-4-(piperidine-1-carbonyl)-piperidin-1-ylmethyl]-cyclopropanecarboxylic acid (4-fluoro-benzyl)-methyl-amide]", "inhibition of the NKB-mediated activation of the NK3 receptor": "inhibited the NKB-mediated activation of the NK3 receptor"},
      {"compound": "CC(=O)NC1(c2ccccc2)CCN(C[C@@H]2C[C@@]2(C(=O)N(C)Cc2ccc(F)cc2)c2ccc(Cl)cc2)CC1", "note": "[Compound 44a, (1S,2R)-2-(4-Acetylamino-4-phenyl-piperidin-1-ylmethyl)-1-(4-chloro-phenyl)-cyclopropanecarboxylic acid (4-fluoro-benzyl)-methyl-amide]", "inhibition of the NKB-mediated activation of the NK3 receptor": "inhibited the NKB-mediated activation of the NK3 receptor"},
      {"compound": "CC(=O)NC1(c2ccccc2)CCN(C[C@@H]2C[C@@]2(C(=O)N(C)Cc2ccccc2Cl)c2ccc(Cl)cc2)CC1", "note": "[Compound 45a, (1S,2R)-2-(4-Acetylamino-4-phenyl-piperidin-1-ylmethyl)-1-(4-chloro-phenyl)-cyclopropanecarboxylic acid (2-chloro-benzyl)-methyl-amide]", "inhibition of the NKB-mediated activation of the NK3 receptor": "inhibited the NKB-mediated activation of the NK3 receptor"},
      {"compound": "(1S,2R)-1-(3,4-Difluoro-phenyl)-2-[4-phenyl-4-(piperidine-1-carbonyl)-piperidin-1-ylmethyl]-cyclopropanecarboxylic acid-methyl-amide [Compound 33a]", "inhibition of the NKB-mediated activation of the NK3 receptor": "inhibited the NKB-mediated activation of the NK3 receptor"}
    ]}
  ]
}
